Assay results reported in US20210171564A1, “COMPOSITIONS AND METHODS FOR THE TREATMENT OF CANCER” (Cellix Bio Private Limited, priority 2018, published 2021).
Several values for one entry are separate records, joined by “and”; a condition that tells them apart may be missing. Identical values can stand only once. Entries after “also recorded” stand apart in the source; their conditions may differ.

Legend:
[1] = Toxicity profile in the xenograft study (mortality, clinical signs, body weight); format: in vivo; details: for Diarrhea / Hunch back / Morality: animals affected/10
Excerpt: (§1) The purpose of this study was to evaluate the anti-tumor activity of test compound administered by oral gavage, for a period of 17 days in HCT116 human colon cancer xenograft bearing Foxn1 athymic nude mice. The anti-tumor activity of test compound was compared with capecitabine. Foxn1 athymic nude female mice (7-8 weeks) were implanted with human colon cancer cell line, HCT116 (5 million cells/site) subcutaneously in the dorsal right flank. The animals were randomized (N=10) into different treatment groups as vehicle control, test compound (300 mg/kg, QD, 150 mg/kg BID, 1000 mg/kg QD and 500 mg/kg BID or capecitabine (1000 mg/kg QD and 500 mg/kg BID) based on the tumor volume, when the subcutaneous tumor reached a volume in the range of 70-137 mm^3.
(§2) The animals in the control group were dosed with the formulation used for test compound, which consisted of 0.5% w/v HPMC+0.5% w/v Tween-80 in purified water (q.s) at the dose volume of […]. The Capecitabine formulation was prepared using 0.5% Hydroxypropyl methylcellulose (HPMC E 15) in 40 mM citrate buffer, pH 6.0 at the dose volume of 10 mL/kg. Treatment to animals was performed initially for ten days dosing followed by 2 off doses days and then continued for another 7 days. […] Tumor growth inhibition (TGI) was calculated based on the tumor volume on a given day as compared to that on day 1. On day 19, blood samples were collected from test compound 1000 mg/kg QD and Capecitabine 1000 mg/kg QD groups at 0 hr; prior to dosing (first dose administration in morning) and at 0.5, 1, 2, 4, 8 and 24 hours post dosing to evaluate the pharmacokinetic parameters of various metabolites (5′-DFCR, 5′-DFUR, 5-Fluorouracil and valproic acid).

[2] = test system: HCT116 human colon cancer xenograft; test: Anti-tumor efficacy in HCT-116 xenograft model in Foxn1 nude mice (tumor growth inhibition); format: in vivo, Foxn1 athymic nude female mice; details: for % Tumor Growth Inhibition (% TGI): oral; for tumor growth inhibition: day not given
Excerpt: Evaluation of Anti-Tumor Efficacy of Test Compound (CLX-Syn-G155A-C03) in HCT-116 Xenograft Model in Fox N1 Nude Mice:
as §1, §2

## CCCCCOC(=O)Nc1nc(=O)n([C@@H]2O[C@H](C)[C@@H](O)[C@H]2O)cc1F [Capecitabine, reference compound]
[1]; 500 mg/kg BID
  Mean % body weight reduction: −16.8%
  Diarrhea: 1/10
  Hunch back: 3/10
  Morality: 2/10
[1]; 1000 mg/kg QD
  Mean % body weight reduction: −24.5%
  Diarrhea: 0/10
  Hunch back: 3/10
  Morality: no mortality and 0/10
[2]; 500 mg/kg BID, day 4
  % Tumor Growth Inhibition (% TGI): 87.0%
[2]; 500 mg/kg BID, day 6
  % Tumor Growth Inhibition (% TGI): 82.9%
[2]; 500 mg/kg BID, day 8
  % Tumor Growth Inhibition (% TGI): 85.8%
[2]; 500 mg/kg BID, day 11
  % Tumor Growth Inhibition (% TGI): 89.3%
[2]; 500 mg/kg BID, day 13
  % Tumor Growth Inhibition (% TGI): 93.6%
[2]; 500 mg/kg BID, day 15
  % Tumor Growth Inhibition (% TGI): 94.1%
[2]; 500 mg/kg BID
  tumor growth inhibition: 87.6%
[2]; 1000 mg/kg QD (once daily)
  tumor growth inhibition: 94.1%
[2]; 1000 mg/kg QD, day 4
  % Tumor Growth Inhibition (% TGI): 76.8%
[2]; 1000 mg/kg QD, day 6
  % Tumor Growth Inhibition (% TGI): 71.5%
[2]; 1000 mg/kg QD, day 8
  % Tumor Growth Inhibition (% TGI): 71.7%
[2]; 1000 mg/kg QD, day 11
  % Tumor Growth Inhibition (% TGI): 77.2%
[2]; 1000 mg/kg QD, day 13
  % Tumor Growth Inhibition (% TGI): 86.9%
[2]; 1000 mg/kg QD, day 15
  % Tumor Growth Inhibition (% TGI): 87.6%

## CCCC(CCC)C(=O)Nc1nc(=O)n([C@@H]2O[C@H](C)[C@@H](OC(C)=O)[C@H]2OC(C)=O)cc1F [Test Compound, (2R,3R,4R,5R)-2-(5-fluoro-2-oxo-4-(2-propylpentanamido)pyrimidin-1(2H)-yl)-5-methyltetrahydrofuran-3,4-diyl diacetate]
[2]; 150 mg/kg BID, day 4
  % Tumor Growth Inhibition (% TGI): 37.4%
[2]; 150 mg/kg BID, day 6
  % Tumor Growth Inhibition (% TGI): 40.2%
[2]; 150 mg/kg BID, day 8
  % Tumor Growth Inhibition (% TGI): 39.2%
[2]; 150 mg/kg BID, day 11
  % Tumor Growth Inhibition (% TGI): 47.6%
[2]; 150 mg/kg BID, day 13
  % Tumor Growth Inhibition (% TGI): 55.7%
[2]; 150 mg/kg BID, day 15
  % Tumor Growth Inhibition (% TGI): 54.7%
[2]; 300 mg/kg QD, day 4
  % Tumor Growth Inhibition (% TGI): 58.8%
[2]; 300 mg/kg QD, day 6
  % Tumor Growth Inhibition (% TGI): 51.0%
[2]; 300 mg/kg QD, day 8
  % Tumor Growth Inhibition (% TGI): 55.5%
[2]; 300 mg/kg QD, day 11
  % Tumor Growth Inhibition (% TGI): 60.7%
[2]; 300 mg/kg QD, day 13
  % Tumor Growth Inhibition (% TGI): 67.2%
[2]; 300 mg/kg QD, day 15
  % Tumor Growth Inhibition (% TGI): 70.4%
[2]; 300 mg/kg/day once daily
  antitumor activity of once a day schedule versus twice a day schedule (150 mg/kg BID): better antitumor activity
[2]; 500 mg/kg BID, day 4
  % Tumor Growth Inhibition (% TGI): 76.3%
[2]; 500 mg/kg BID, day 6
  % Tumor Growth Inhibition (% TGI): 74.8%
[2]; 500 mg/kg BID, day 8
  % Tumor Growth Inhibition (% TGI): 81.3%
[2]; 500 mg/kg BID, day 11
  % Tumor Growth Inhibition (% TGI): 87.7%
[2]; 500 mg/kg BID, day 13
  % Tumor Growth Inhibition (% TGI): 95.4%
[2]; 500 mg/kg BID, day 15
  % Tumor Growth Inhibition (% TGI): 96.6%
[2]; 1000 mg/kg QD (once daily)
  tumor growth inhibition: > 90%
[2]; 1000 mg/kg QD, day 4
  % Tumor Growth Inhibition (% TGI): 66.0%
[2]; 1000 mg/kg QD, day 6
  % Tumor Growth Inhibition (% TGI): 70.5%
[2]; 1000 mg/kg QD, day 8
  % Tumor Growth Inhibition (% TGI): 73.3%
[2]; 1000 mg/kg QD, day 11
  % Tumor Growth Inhibition (% TGI): 78.4%
[2]; 1000 mg/kg QD, day 13
  % Tumor Growth Inhibition (% TGI): 88.1%
[2]; 1000 mg/kg QD, day 15
  % Tumor Growth Inhibition (% TGI): 90.9%
[2]; oral gavage, QD and BID dosage regimen
  antitumor activity against HCT-116 human colon cancer xenografts: statistically significant, dose dependent tumor growth inhibition; also recorded: statistically significant dose dependent antitumor activity
